# Reference: EP0425968A2, “Novel multiple layer transdermal drug administration system” (G.D. Searle & Co., priority 1989, dated 1991)
# Assays:
# [1] = Figure 1; against prior art agents such as Azone® and isopropyl alcohol (IPA)
# in vivo = experiment: in vivo; set-up: species or system rhesus monkeys; conditions: female, rhesus monkey, iv, 0.05 mg, AUC Area Under the Curve after intravenous administration
# Description: Serum concentration time profiles after intravenous administration: Four female rhesus monkeys, #388, #391, #423, and #430, were used in a cross over design for IV and pad bioavailability experiments. From each monkey, 7 ml of blood sample was removed on the previous day of the experiment, centrifuged to separate serum, and stored at -20°C till the analysis. This serum sample was used to make blanks and standards. […] The serum was separated from blood via centrifugation and stored at -20 °C till analysis.
# Analysis of serum samples. […] The aqueous extracts were analyzed by an HPLC-Fluorescence method.
# [2] = use for preterm labor; cited from earlier work
# [3] = Serum concentration time profile and pharmacokinetics after transdermal pad administration; type: in vivo, rhesus monkeys; conditions: rhesus monkey, read-out: AUC Area Under the Curve after transdermal administration
# Description: Serum concentration time profiles after transdermal pad administration. After overnight fasting, on the day of the experiment, monkeys were restrained in chairs and the chest areas were clipped to remove hair, avoiding any injury to the skin tissue. Skin surface was wiped with isopropyl alcohol swab and a 4 square centimeter portion of the pad was then applied to the chest area for 24 hours and was removed as described previously. Following the pad application, blood samples were removed at 0.00, 0.5, 1.00, 1.50, 3.00, 5.00, 7.00, 12.00, 24.00, 31.00, and 48.00 hours, centrifuged to separate serum and stored at -20 °C till the analysis.
# Analysis of serum samples. Serum albuterol and internal standard bamethan sulphate were extracted into chloroform to remove polar interfering substances and reextracted in to the aqueous phase to eliminate nonpolar materials. The aqueous extracts were analyzed by an HPLC-Fluorescence method.
effect of adjuvant agent on the flux of albuterol [1],AUC (in vivo),"AUC ([3]; Monkey #423, Transdermal dose 0.77 mg.Kg⁻¹)","AUC ([3]; topical or ocular, Monkey #388, Transdermal dose 0.38 mg.Kg⁻¹)","AUC ([3]; topical or ocular, Monkey #391, Transdermal dose 0.39 mg.Kg⁻¹)","AUC ([3]; topical or ocular, Monkey #430, Transdermal dose 0.72 mg.Kg⁻¹)",Structure (SMILES),plasma levels needed for uterine relaxation [2]
most effective,–,–,–,–,–,CCO [ethanol],–
–,0.0707 µg·h/mL,1.53 µg·h/mL,0.712 µg·h/mL,0.777 µg·h/mL,1.26 µg·h/mL,CC(C)(C)NCC(O)c1ccc(O)c(CO)c1 (stereo not shown) [albuterol],8 to 33 nanograms per milliliter
